Measurements from ChEMBL document CHEMBL1201862, “PubChem BioAssay data set” (2004).
Calls of active or inactive are those of the source. Rule as the data show it, for most assays here: active = IC50 of 20 µM or less and inactive = more.

Experiments:
Jurkat = test: SAR Analysis of small molecule inhibitors of […] specific antigen receptor-induced NF-kB activation in a Jurkat cell line using a luminescence assay - Set 3. [Related pubchem assays (depositor defined):AID435022, AID435025, AID465]; type: functional, cell-based; details: Homo sapiens
HEK293 [1] = test: HEK293T cell viability loss, resazurin readout – resazurin fluorescence, cytotoxicity control for NF-kB activator project, SAR follow-up (AID 493251); type: functional, cell-based; details: Homo sapiens
HEK293 [2] = test: SAR Analysis of small molecule inhibitors of B-cell specific antigen receptor-induced NF-kB activation in a HEK-293T cell line using a luminescence assay - Set 2. [Related pubchem assays (depositor defined):AID435022, AID435025, AID489021]; type: functional, cell-based; details: Homo sapiens
[3] = target: T1, Nuclear receptor subfamily 0 group B member 1 (Homo sapiens, UniProt P51843); test: Luminescence-based cell-based high throughput dose response assay for inhibitors of the orphan nuclear receptor subfamily 0, group B, member 1 (DAX1; NR0B1). [Related pubchem assays (depositor defined):AID504766, AID504790]; type: functional
T1 sequence (P51843 whole entry): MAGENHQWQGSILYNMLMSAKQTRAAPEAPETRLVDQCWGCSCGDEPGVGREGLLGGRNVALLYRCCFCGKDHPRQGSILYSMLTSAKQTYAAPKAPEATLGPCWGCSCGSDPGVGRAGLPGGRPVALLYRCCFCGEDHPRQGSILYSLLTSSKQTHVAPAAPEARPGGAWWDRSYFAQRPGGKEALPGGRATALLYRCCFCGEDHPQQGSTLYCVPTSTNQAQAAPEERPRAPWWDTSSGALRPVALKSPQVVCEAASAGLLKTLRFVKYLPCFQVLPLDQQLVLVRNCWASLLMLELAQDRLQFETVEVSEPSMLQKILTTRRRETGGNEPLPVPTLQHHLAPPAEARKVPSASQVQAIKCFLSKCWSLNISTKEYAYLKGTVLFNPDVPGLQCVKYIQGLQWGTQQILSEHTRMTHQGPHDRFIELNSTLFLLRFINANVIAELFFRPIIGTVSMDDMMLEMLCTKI

HEK293 [4] = test: cells; type: functional, cell-based; details: Homo sapiens

With CCOc1ccc(-c2nc(CSCC(=O)NCc3ccc(C)cc3)c(C)o2)cc1 the IC50 (Jurkat) was 48.9 µM (inactive), the IC50 (HEK293 [1]) was > 80 µM (inactive) and the IC50 (HEK293 [2]) was > 80 µM (inactive).

C=CCNC(=O)CCc1nc(-c2ccc(C(C)(C)C)cc2)no1 was tested, and the IC50 (Jurkat) was 25.2 µM (inactive), the IC50 (HEK293 [1]) was > 80 µM (inactive) and the IC50 (HEK293 [2]) was 5.3 µM (active).

For C/C(=N\NC(=S)NC1CCCCC1)c1ccc(Cl)c(Cl)c1, the IC50 [3] was > 67.5 µM (inactive) and the IC50 (HEK293 [4]) was > 67.5 µM (inactive).

With COc1ccccc1/C=N\Nc1ccccc1[N+](=O)[O-] the IC50 [3] was > 67.6 µM (inactive) and the IC50 (HEK293 [4]) was > 67.6 µM (inactive).
